Data set [1] has as its system vein endothelial cells of the AKAP12 knockdown zebrafish. As to the kind of experiment: Movement of vein endothelial cells of AKAP12 knockdown zebrafish treated with RhoA signal inhibitor. Type of data set: in vivo. The note with it: 200 uM, 44 hours after fertilization.
For a further data set, the system named is ve-cadherin. As to the kind of experiment: ve-cadherin expression in HUVEC by western-blotting and immunocytochemistry. The format is cell-based, human. As to conditions: treated with both siRNA regarding AKAP12 and ROCKOUT. As to the method:
To be specific, in the western-blotting, first, cells were dissolved in lysis buffer containing 10 mM HEPES (pH 7.9), 400 mM NaCl, 0.1 mM EDTA, 5% glycerol, 1 mM DTT (D1-dithiothreitol) and protease inhibitor cocktail, and the proteins in cells were quantified using BCA. From the whole cell lysate prepared as explained above, the proteins in cells were isolated according to molecular weight sizes using sodium dodecyl sulfate-polyacrylamide gel electrophoresis, and the proteins were moved to the polyvinyldifluoride membrane (Millipore). After that, blocking was performed, and the primary antibody was treated overnight (for 16 hours) at 4° C. On the next day, secondary antibodies regarding the primary antibodies were treated at room temperature for 2 hours, respectively, and detected using ECL PLUS (Amersham). As for the primary antibodies, VE-cadherin (Santa Cruz Biotechnology); F-actin (Sigma) were used.
As for the immunochemistry, first, cells were seeded in a 0.1% gelatin-coated slide, rinsed with cold PBS, and fixed for 10 minutes at room temperature with 4% paraformaldehyde. After that, the cells were rinsed again three times with PBS, treated with 0.5% Triton X-100 for 5 minutes, rinsed with PBS-T and underwent blocking at room temperature for 30 minutes with 0.1% blocking solution (Roche). […]

Data set [2] relates to Human Umbilical Vein Endothelial Cells (HUVEC). As to the kind of experiment: In vitro permeability assay using HUVEC (RITC-labeled dextran, transwell). The format is cell-based. As to conditions: AKAP12 siRNA group treated with ROCKOUT, 15 minutes incubation.
Data set [3] has as its system zebrafish AKAP12 alpha form. As to the kind of experiment: Micro-vasculature defect in brains of AKAP12 alpha form knockdown tg(fli:egfp) zebrafish. Type of data set: in vivo. As to conditions: 3 ng morpholino; 10 kDa tetramethylrhodamine-dextran after 3 days. As to the method: The present inventor knocked down the zebrafish AKAP12 alpha form using the transgenic zebrafish ‘tg(fli:egfp)’ in which green fluoresces selectively in the vein endothelial cells, and observed the defect pattern of the micro-vasculatures in brains. To be specific, the inventors knocked down the zebrafish AKAP12 alpha form by microinjecting 3 ng of morpholino for zebrafish AKAP12 alpha form into the transgenic zebrafish (fli:egfp) embryos, and then after 3 days, microinjected 25 mg/ml of red-fluorescent lysine-fixable tetramethylrhodamine-dextran, 10 kDa through the common cardinal vein of the zebrafish, and then observed through the LSM 510 META NLO confocal microscope (Carl Zeiss, Germany).

Data set [4] concerns zebrafish AKAP12 alpha form. As to the kind of experiment: Hemorrhage of AKAP12 alpha form knockdown zebrafish. The format is in vivo. From the text: (§1) The present inventors observed the embryos of […] AKAP12 alpha and beta form knockdown zebrafish, and as a result, could observe the bleeding in the 2 to 3 day-old zebrafish.
Data set [5] deals with zebrafish AKAP12 alpha form mRNA. As to the kind of experiment: Genetic defect (phenotype) of zebrafish after microinjecting morpholino, alpha form. Type of data set: in vivo. From the text:
(§2) The present inventors prepared morpholino for the zebrafish AKAP12 alpha form mRNA and zebrafish AKAP12 beta form mRNA knockdown. The preparation of the morpholino was ordered to Gene Tools LLC. The method for morpholino preparation is written in Summerton, J. et al., Anti sense & Nucleic Acid Drug Development 7: 187-95, 1997. The prepared morpholino was so prepared to block the characteristic variant regions of each of the alpha and beta forms from binding to the site of splicing and thus block splicing and developing into mature mRNA, in which the alpha form morpholino was so designed to bind adjacent to 339th base of the AKAP12 alpha form as the sequence of […] (SEQ. ID. NO. 7) 25-mer, and the beta form morpholino was so designed to bind adjacent to the 227th base of the AKAP12 beta form as the sequence of […] (SEQ. ID. NO. 8) 25-mer (see FIG. 1).
(§3) The present invention knocked down zebrafish AKAP12 mRNA by microinjecting the prepared morpholino of <Example 3> into the zebrafish and observed the phenotype.
(§4) First, the inventors microinjected 7 ng and 10 ng of morpholino for AKAP12 mRNA alpha form, and microinjected 7.5 ng of morpholino for AKAP12 mRNA beta form.
(§5) Further, after injecting 3.7 ng, 7.5 ng and 10 ng of morpholino for zebrafish AKAP12 alpha and beta forms, the present inventors could confirm that the genetic defect appears in the beta form at about 7.5 ng and alpha form at about 3.7 ng (see FIG. 4).

Data set [6] concerns zebrafish AKAP12 alpha form. As to the kind of experiment: Vessel defects of AKAP12 knockdown tg(fli:egfp) zebrafish. The note with it: 2 ng morpholino; 2000 kDa tetramethylrhodamine-dextran within 48 to 60 hours. The format is in vivo. On the procedure: The present inventors knocked down the zebrafish AKAP12 alpha and beta forms using the transgenic zebrafish ‘tg(fli:egfp)’ in which green fluoresces selectively in the endothelioyte of the vessels, and observed the defect pattern in the vessels. To be specific, the inventors knocked down the zebrafish AKAP12 alpha and beta forms by microinjecting 2 ng alpha) and 7.5 ng (beta) of morpholino for zebrafish KAAP12 alpha and beta forms, into the transgenic zebrafish ‘fli:egfp’, respectively, and within 48 to 60 hours, microinjected 25 mg/ml of red-fluorescent lysine-fixable tetramethylrhodamine-dextran, 2000 kDa (molecular probes) and observed through the LSM 510 META NLO confocal microscope (Carl Zeiss, Germany).

For data set [7], the system named is zebrafish AKAP12 alpha form. As to the kind of experiment: Heart defect of AKAP12 alpha form knockdown tg(cmlc:egfp) zebrafish. The format is in vivo. As to conditions: 3.7 ng morpholino, 1.5 days later. On the procedure: The present inventors knocked down zebrafish AKAP12 alpha form using the transgenic zebrafish ‘tg(cmlc:egfp)’ in which green fluoresces characteristically to the light chain of the heat muscles, and observed the heart defects of the zebrafish. That is, the inventors knocked down the zebrafish AKAP12 alpha form by microinjecting 3.7 ng of morpholino for zebrafish AKAP12 alpha form into the transgenic zebrafish (‘tg(cmlc:egfp)’) embryos, and observed the hearts of the zebrafish after 1.5 days later using the LSM 510 META NLO confocal microscope Carl Zeiss, Germany).

In a further data set the test system is AKAP12 alpha form mRNA. As to the kind of experiment: Zebrafish defect patterns in accordance with morpholino amount, alpha form. The format is in vivo. From the text: (§6) The present inventors knocked down AKAP12 alpha form mRNA and beta form mRNA using morpholino for zebrafish AKAP12 alpha and beta forms, and observed the defect patterns in accordance with the amounts of morpholino, respectively.

The test system of a further data set is AKAP12 beta form mRNA. As to the kind of experiment: Zebrafish defect patterns in accordance with morpholino amount, beta form. The format is in vivo.
Excerpt: as §6

In data set [8] the test system is zebrafish AKAP12 beta form mRNA. As to the kind of experiment: Genetic defect (phenotype) of zebrafish after microinjecting morpholino, beta form. Type of data set: in vivo.
Excerpt: as §2, §3, §4, §5

For data set [9], the system named is zebrafish AKAP12 beta form. As to the kind of experiment: Hemorrhage of AKAP12 beta form knockdown zebrafish. The format is in vivo. As to conditions: 7.5 ng injected, day 3.
Excerpt: as §1

[10] abbreviates: morpholino only, control group of rescue test.

Consider three compounds from patent US20110162092A1, “COMPOSITION COMPRISED OF AKAP12 AND USES OF AKAP12 MUTANT ZEBRAFISH AS AN ANIMAL MODEL” (SNU RDB FOUNDATION, priority 2008, published 2011).

On to `c1ccc2c(-c3ccncc3)c[nH]c2c1` [ROCKOUT], for which the “movement of vein endothelial cells” value in [1] was “the excessive movement of the vein endothelial cells slowed”. Also, the expression of ve-cadherin entry in the data set with ve-cadherin was “the expression of ve-cadherin increased back”. The RITC permeability result in data set [2] is “decreased permeability”.
Regarding “morpholino for zebrafish AKAP12 alpha form: 25-mer morpholino TCTTACCTGTTAGAGTTATTGTCCC (SEQ. ID. NO. 7), binds adjacent to 339th base of AKAP12 alpha form, blocks splicing (all phosphorodiamidate morpholino (PMO))”, the “defect pattern of micro-vasculatures in brains, dextran distribution” value in data set [3] is “non-uniform micro-vasculature in brains and also the red lysine-fixable tetramethylrhodamine-dextran was distributed around the green micro-vasculatures”. Further, the “rate of zebrafish showing hemorrhage” value in [4] (3 ng injected, day 3) is “approximately 50%”. Further, in [4] (1, 2 and 3 ng in sequence), the “rate of zebrafish with hemorrhage versus amount” value is recorded as “hemorrhage increased as the amount of injected morpholino increased”. Further, in [5] (7 ng and 10 ng injected, by degree of defect), the “mRNA expression pattern of AKAP12 alpha form by RT-PCR” value is recorded as “the zebrafish with severer degree of defects had lower degree of mRNA expression”. The “phenotype: tail portions and mobility” value in data set [5] (7 ng and 10 ng microinjected) is “crooked or shortened tail portions and abnormal mobility”. For the same compound, the defect patterns result in data set [5] (setting [10]) is “crooked trunks and bleeding”; in [5] (only 4 ng morpholino, control group of rat mRNA rescue), “defect patterns including crooked and shortened tail and deformed hearts”. Further, the “defect pattern in the vessels, dextran leakage” value in data set [6] is “non-uniform micro-vasculature in the brains and also the red lysine-fixable tetramethylrhodamine-dextran leaked out of the green vessel”. Also, the “heart shape (atriums and ventricles)” value in [7] was “elongated atriums and ventricles”. Further, in data set [7], the heartbeats entry was “non-uniform and weak heartbeats”. Further, the defect pattern entry in the data set with AKAP12 alpha form mRNA (1 ng and 2 ng) was “bleeding only”; with AKAP12 alpha form mRNA (4 ng and more) it was “decreasing bleeding due to severe defects of hearts and other veins”; with AKAP12 alpha form mRNA (3 and 4 ng), “both the bleeding and defects in heart and trunk veins”.
Consider “morpholino for zebrafish AKAP12 beta form: 25-mer morpholino TACCTTGCCATCTGCGGTTTCTCCA (SEQ. ID. NO. 8), binds adjacent to 227th base of AKAP12 beta form, blocks splicing (all phosphorodiamidate morpholino (PMO))”, for which the defect pattern entry in the data set with AKAP12 beta form mRNA (7.5 ng and 8 ng) is “both the bleeding and defects of heat and trunk veins concurrently”; in the data set on AKAP12 beta form mRNA (9 ng or more), “only the defects in heart and trunk veins”. In addition, in data set [8] (3.7 ng, 7.5 ng and 10 ng injected), the “amount of morpholino at which the genetic defect appears” value is listed as “about 7.5 ng”. Besides, the “phenotype: tail portions and mobility” value in [8] (7.5 ng microinjected) is “crooked or shortened tail portions and abnormal mobility”. Moreover, the defect patterns entry in [8] (setting [10]) was “crooked trunks and bleeding”. Besides, the “rate of zebrafish showing hemorrhage” value in [9] is “approximately 27%”.
